From US11634418B2, “Amino acid compounds and methods of use” (Pliant Therapeutics, Inc., priority 2016, dated 2023) come the findings set out here.

In this assay the target is recombinant human integrin αvβ6 (Homo sapiens (Human), UniProt P06756+P18564). Description: Solid Phase Integrin αvβ6 Binding Assay. Particulars: inhibition of recombinant TGFβ1 LAP binding to coated integrin; IC50 given as range. The procedure: Microplates were coated with recombinant human integrin αvβ6 (2 ug/ml) in PBS (100 ul/well 25° C. overnight). The coating solution was removed, washed with wash buffer (0.05% Tween 20; 0.5 mM MnCl2; in 1×TBS). Plate was blocked with 200 ul/well of Block Buffer (1% BSA; 5% sucrose; 0.5 mM MnCl2; in 1×TBS) at 37° C. for 2 h. Dilutions of testing compounds and recombinant TGFβ1 LAP (0.67 ug/ml) in binding buffer (0.05% BSA; 2.5% sucrose; 0.5 mM MnCl2; in 1×TBS) were added. The plate was incubated for 2 hours at 25° C., washed, and incubated for 1 hour with Biotin-Anti-hLAP. Bound antibody was detected by peroxidase-conjugated streptavidin. The IC50 values for testing compounds were calculated by a four-parameter logistic regression.

SMILES strings stand for the structures.

By IC50 is commonly meant the concentration at which inhibition is half-maximal.

Chain of recombinant human integrin αvβ6 (P06756 31-992): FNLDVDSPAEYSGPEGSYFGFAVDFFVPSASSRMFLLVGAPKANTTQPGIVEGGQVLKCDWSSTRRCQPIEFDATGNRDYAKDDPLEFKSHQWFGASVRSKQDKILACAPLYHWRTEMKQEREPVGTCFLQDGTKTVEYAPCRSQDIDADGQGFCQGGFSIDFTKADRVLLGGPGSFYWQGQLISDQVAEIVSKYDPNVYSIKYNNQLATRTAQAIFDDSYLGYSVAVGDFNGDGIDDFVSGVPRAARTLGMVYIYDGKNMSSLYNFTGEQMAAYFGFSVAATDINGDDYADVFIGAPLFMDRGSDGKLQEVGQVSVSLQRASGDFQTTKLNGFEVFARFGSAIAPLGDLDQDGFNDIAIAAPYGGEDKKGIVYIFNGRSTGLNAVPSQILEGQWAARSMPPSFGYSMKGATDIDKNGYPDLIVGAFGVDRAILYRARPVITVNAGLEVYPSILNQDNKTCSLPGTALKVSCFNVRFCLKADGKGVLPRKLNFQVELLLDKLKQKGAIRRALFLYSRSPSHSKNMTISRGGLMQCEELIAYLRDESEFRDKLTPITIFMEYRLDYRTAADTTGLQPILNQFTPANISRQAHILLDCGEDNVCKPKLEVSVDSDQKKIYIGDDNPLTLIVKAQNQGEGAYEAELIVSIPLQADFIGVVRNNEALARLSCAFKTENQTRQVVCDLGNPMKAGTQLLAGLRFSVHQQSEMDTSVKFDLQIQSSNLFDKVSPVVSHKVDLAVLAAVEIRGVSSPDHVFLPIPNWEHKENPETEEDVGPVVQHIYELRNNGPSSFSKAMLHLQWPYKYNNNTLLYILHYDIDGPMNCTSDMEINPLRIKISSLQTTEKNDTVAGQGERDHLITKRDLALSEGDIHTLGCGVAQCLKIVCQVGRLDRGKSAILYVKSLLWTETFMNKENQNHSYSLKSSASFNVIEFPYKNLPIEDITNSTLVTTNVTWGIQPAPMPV
Chain of recombinant human integrin αvβ6 (P18564 22-707): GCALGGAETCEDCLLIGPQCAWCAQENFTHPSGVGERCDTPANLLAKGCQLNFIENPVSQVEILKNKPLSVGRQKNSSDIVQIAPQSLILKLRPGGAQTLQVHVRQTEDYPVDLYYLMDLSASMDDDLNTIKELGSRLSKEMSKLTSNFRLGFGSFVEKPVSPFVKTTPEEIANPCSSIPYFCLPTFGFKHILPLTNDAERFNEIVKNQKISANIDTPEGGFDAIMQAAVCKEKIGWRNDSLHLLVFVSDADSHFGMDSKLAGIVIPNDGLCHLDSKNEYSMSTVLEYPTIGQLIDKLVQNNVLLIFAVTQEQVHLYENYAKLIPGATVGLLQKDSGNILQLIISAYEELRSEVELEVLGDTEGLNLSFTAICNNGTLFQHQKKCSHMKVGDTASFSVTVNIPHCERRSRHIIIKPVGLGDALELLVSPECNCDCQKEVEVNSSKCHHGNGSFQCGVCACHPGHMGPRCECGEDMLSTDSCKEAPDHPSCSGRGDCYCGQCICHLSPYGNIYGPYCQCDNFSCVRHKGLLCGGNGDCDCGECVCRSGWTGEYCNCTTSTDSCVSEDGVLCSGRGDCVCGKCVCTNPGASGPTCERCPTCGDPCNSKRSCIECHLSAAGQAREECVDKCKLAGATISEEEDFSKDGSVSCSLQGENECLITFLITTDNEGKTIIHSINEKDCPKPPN

As for `O=C(N[C@@H](CCN1CCC(NCc2ccc3c(n2)NCCC3)CC1)C(=O)O)C1CCC(F)(F)CC1` [Compound 34], the IC50 is > 1000 nM.

Turning to `Cc1cc(C)n(-c2cccc(C(=O)N[C@@H](CCN3CC(CCc4ccc5c(n4)NCCC5)CC(F)(F)C3)C(=O)O)c2)n1` (stereo partly shown) [Compound 42], the IC50 is 250 to 4000 nM.

In the case of `Cn1ncc2ccc(C(=O)N[C@@H](CCN3CCC[C@@](F)(CCc4ccc5c(n4)NCCC5)C3)C(=O)O)cc21` [Compound 106], the IC50 was 50 nM.

For `O=C(N[C@@H](CCN1CCC[C@@](F)(CCc2ccc3c(n2)NCCC3)C1)C(=O)O)C1CCC(F)(F)CC1` [Compound 107], the IC50 amounted to 50 nM.

`CC(C)(O)CN1CCCC1C(=O)N[C@@H](CCN1CC(OCCc2ccc3c(n2)NCCC3)C1)C(=O)O` (stereo partly shown) [Compound 134]: the IC50 lay within 250 to 1000 nM.

Regarding `NCCCc1ccc(CCC2CC3CCC2N3CC[C@H](NC(=O)c2cc(F)cc(C(F)(F)F)c2)C(=O)O)nc1` (stereo partly shown) [Compound 141], the IC50 is < 50 nM.

With `O=C(O)[C@H](CCN1CC(CCc2ccc3c(n2)NCCC3)C1)NC(=O)[C@@H]1CCCN1Cc1ccccc1` [Compound 143], the IC50 is > 1000 nM.
